The results in this text go back to patent publication US20250206747A1, “COELENTERAZINE ANALOGUES” (priority 2023, published 2025).

This experiment deals with NANOLUC® luciferase (Oplophorus gracilirostris, UniProt Q9GV45, A31E/A60N/A81I/F95D/I117V/K70R/L54V/L99Q/M102K/N193R/P142E/Q151K/Q38R/Q45L/V71I/Y165I). In words: Michaelis-Menten analysis of relative luminescence produced by NANOLUC luciferase at various concentrations of coelenterazine analogues. The conditions noted are these: 0.01 nM NANOLUC luciferase. The class given is biochemical.
Sequence of NANOLUC® luciferase (Q9GV45 other isoform, or with tags, fused parts or gaps with the stated changes): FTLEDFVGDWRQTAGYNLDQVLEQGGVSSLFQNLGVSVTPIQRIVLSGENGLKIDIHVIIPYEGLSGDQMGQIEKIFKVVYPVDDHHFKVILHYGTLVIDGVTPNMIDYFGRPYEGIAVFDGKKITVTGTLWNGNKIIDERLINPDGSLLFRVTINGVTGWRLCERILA

Molecules are shown by their SMILES.

Take `O=c1c(Cc2ccco2)nc2c(-c3cnnc(Cl)c3)[nH]c(-c3cccc(F)c3)cn1-2` [Compound 10299]: where the note is “Table 1”, the Km is 0.15 µM. `COc1cccc(-c2cn3c(=O)c(Cc4ccco4)nc-3c(-c3cnnc(Cl)c3)[nH]2)c1` [Compound 10300]: the Km (Table 1) is 0.27 µM. With `O=c1c(Cc2ccco2)nc2c(-c3cnnc(Cl)c3)[nH]c(-c3cccc(F)c3F)cn1-2` [Compound 10427, 8-(6-chloropyridazin-4-yl)-6-(2,3-difluorophenyl)-2-(furan-2-ylmethyl)imidazo[1,2-a]pyrazin-3(7H)-one], the Michaelis constant (Km) (Table 2) stood at 0.16 µM.

In general, Km refers to the concentration of substrate that gives half-maximal velocity.
